According to patent US6875760B2 (Novo Nordisk A/S, priority 1999, dated 2005):
pIC50: −log10 of the molar value.

Biological target: T1, cloned human glucagon receptor (Homo sapiens, UniProt P47871)
T1 construct: expressed in transfected cells; plasma membrane preparation
Assay: Glucagon Binding Assay (II)
Settings: plasma membranes of BHK cells expressing the receptor; read-out: Glu Bd Assay (II) IC50
Protocol: Binding of compounds to the glucagon receptor was determined in a competition binding assay using the cloned human glucagon receptor.
The receptor inserted in the pLJ6′ expression vector using EcoRI/SSt1 restriction sites (Lok et al.) was expressed in a baby hamster kidney cell line (A3 BHK 570-25).
The homogenate was resuspended and centrifuged again. The final precipitate containing the plasma membranes was suspended in buffer and stored at −80° C. until use.
Binding assays were carried out in duplicate in polypropylene tubes or microtiter plates. The buffer used in this assay was 50 mM HEPES pH 7.4 containing 5 mM EGTA, 5 mM MgCl2 and 0.005% Tween 20. Sample (glucagon (Bachem CA) or test compounds) was added to each tube or well. Tracer (˜25.000 cpm) was diluted in buffer and was added to each tube or well. 0.5 mg freshly thawed plasma membrane protein diluted in buffer was then added in aliquots to each tube or well. Tubes or plates were incubated at 37° C. for 1 hour. Non-specific binding was determined with 10^−7 M of glucagon. Bound tracer and unbound tracer were then separated by vacuum filtration. The tubes or wells were washed twice with 0.01% Triton X-100 buffer. Scintillation fluid was added to the plates and radioactivity was quantified using a scintillation counter.

T1 sequence (P47871 26-477): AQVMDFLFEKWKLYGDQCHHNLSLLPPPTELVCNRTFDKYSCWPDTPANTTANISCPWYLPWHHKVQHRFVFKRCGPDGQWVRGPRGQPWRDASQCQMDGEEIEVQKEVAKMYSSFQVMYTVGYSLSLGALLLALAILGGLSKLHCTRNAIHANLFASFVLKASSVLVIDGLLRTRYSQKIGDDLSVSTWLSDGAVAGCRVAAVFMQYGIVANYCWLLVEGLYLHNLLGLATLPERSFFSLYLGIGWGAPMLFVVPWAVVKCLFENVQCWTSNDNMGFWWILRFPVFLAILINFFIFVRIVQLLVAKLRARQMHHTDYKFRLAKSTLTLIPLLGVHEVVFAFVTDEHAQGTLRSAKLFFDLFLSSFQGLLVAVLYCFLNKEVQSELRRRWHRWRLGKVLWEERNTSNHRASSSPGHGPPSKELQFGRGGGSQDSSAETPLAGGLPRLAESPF

pIC50 | SMILES
7.82 | O=C(Nc1nn[nH]n1)c1ccc(CN(C(=O)Nc2ccc(OC(F)(F)F)cc2)[C@H]2CC[C@@H](C3CCCCC3)CC2)cc1 [Example 575, 4-[1-(4-cis-Cyclohexylcyclohexyl)-3-(4-trifluoromethoxyphenyl)ureidomethyl]-N-(2H-tetrazol-5-yl)benzamide]
5.73 | O=C(O)CCNC(=O)c1ccc(CN(C(=O)Nc2ccc3[nH]ccc3c2)c2ccc(C3CCCCC3)cc2)cc1 [Example 607, 3-{4-[1-(4-Cyclohexylphenyl)-3-(1H-indol-5-yl)ureidomethyl]benzoylamino}propionic acid]
7.01 | O=C(O)CCNC(=O)c1ccc(CN(C(=O)NCc2ccc(Cl)c(Cl)c2)c2ccc(C3CCCCC3)cc2)cc1 [Example 606, 3-{4-[1-(4-Cyclohexylphenyl)-3-(3,4-dichlorobenzyl)ureidomethyl]benzoylamino}propionic acid]
7.12 | CC(C)(C)[C@H]1CC[C@@H](N(Cc2ccc(C(=O)NCCC(=O)O)cc2)NC(=O)c2cc(Cl)cc(Cl)c2)CC1 [Example 588, 3-{4-[N-(cis-4-tert-Butylcyclohexyl)-N′-(3,5-dichlorobenzoyl)hydrazinomethyl]benzoylamino}propionic acid]
7.54 | CC(C)(C)C1CCC(N(Cc2ccc(C(=O)NCCC(=O)O)cc2)C(=O)Nc2ccc(Cl)c(C(F)(F)F)c2)CC1 (stereo not drawn) [Example 236]
6.93 | C[C@@H](NC(=O)N(Cc1ccc(C(=O)NCCC(=O)O)cc1)c1ccc(C2CCCCC2)cc1)c1ccc2ccccc2c1 [Example 610, 3-{4-[1-(4-Cyclohexylphenyl)-3-[(1R)-1-(2-naphthyl)ethyl]ureidomethyl]benzoylamino}propionic acid]
6.82 | O=C(O)CCNC(=O)c1ccc(CN(C(=O)NCc2cc(Cl)cc(Cl)c2)c2ccc(C3CCCCC3)cc2)cc1 [Example 395, 3-{4-[1-(4-Cyclohexylphenyl)-3-(3,5-dichlorobenzyl)ureidomethyl]benzoylamino}propionic acid]
6.85 | O=C(O)CCNC(=O)c1ccc(CN(Cc2cccc(Br)c2)c2ccc(C3CCCCC3)cc2)cc1 [Example 581, 3-(4-{[(3-Bromobenzyl)-(4-cyclohexylphenyl)amino]methyl}benzoylamino)propionic acid]
6.79 | CC(C)(C)C1CCC(N(Cc2ccc(C(=O)NCCC(=O)O)cn2)C(=O)Nc2ccc(OC(F)(F)F)cc2)CC1 (stereo not drawn) [Example 612, 3-({6-[1-(4-tert-Butylcyclohexyl)-3-(4-trifluoromethoxyphenyl)ureidomethyl]pyridine-3-carbonyl}amino)propionic acid]

Continued, compound first:

SMILES | pIC50
CC1CCC(N(Cc2ccc(C(=O)NCCC(=O)O)cc2)C(=O)Nc2ccc(-c3ccccc3)cc2)CC1 (stereo not drawn) | 6.29
CC(C)(C)C1CCC(N(Cc2ccc(C(=O)NCCC(=O)O)cc2)C(=O)Nc2cc(C(F)(F)F)cc(C(F)(F)F)c2)CC1 (stereo not drawn) | 8.00
CCCCOC(=O)c1ccc(NC(=O)N(Cc2ccc(C(=O)NCCC(=O)O)cc2)C2CCCC(C)C2)cc1 (stereo not drawn) | 6.56
C[C@@H](C1CCCCC1)N(Cc1ccc(C(=O)NCCC(=O)O)cc1)C(=O)Nc1cc(Cl)cc(Cl)c1 [Example 140, 3-{4-[1-((1S)-1-Cyclohexylethyl)-3-(3,5-dichlorophenyl)ureidomethyl]benzoylamino)propionic acid] | 6.24
CCCCOC(=O)c1ccc(NC(=O)N(CCC(C)C)Cc2ccc(C(=O)NCCC(=O)O)cc2)cc1 | 6.60
COC(=O)CCNC(=O)c1ccc(CN(C(=O)Nc2cc(C(F)(F)F)cc(C(F)(F)F)c2)C2CCC(C(C)(C)C)CC2)cc1 (stereo not drawn) | 7.00
CCCCc1ccc(NC(=O)N(Cc2ccc(C(=O)NCCC(=O)O)cc2)C2Cc3ccccc3C2)cc1 [Example 112, 3-{4-[1-(2,3-Dihydro-1H-inden-2-yl)-3-(4-butylphenyl)ureidomethyl]benzoylamino)propionic acid] | 6.66

Same assay, conditions: screened at 1 μM; library compounds; read-out: displacement of the glucagon tracer when screened at 1 μM concentration in the glucagon binding assay II

inhibition at 1 µM [%] | SMILES
> 50 | CCOc1ccc(NC(=O)N(Cc2ccc(C(=O)NCCC(=O)O)cc2)C2CCC(C(C)(C)C)CC2)cc1 (stereo not drawn) [Example 200, 3-{4-[1-(4-tert-Butylcyclohexyl)-3-(4-ethoxyphenyl)ureidomethyl]benzoylamino}propionic acid]
> 50 | CC(C)(C)C1CCC(N(Cc2ccc(OCCCC(=O)O)cc2)C(=O)Nc2ccc(C(=O)O)cc2)CC1 (stereo not drawn) [Example 226, 4-{3-(4-tert-Butylcyclohexyl)-3-[4-(3-carboxypropoxy)benzyl]ureido}benzoic acid]
> 50 | CC(C)(C)C1CCC(N(Cc2ccc(C(=O)NCCC(=O)O)o2)C(=O)Nc2ccc(Cl)c(C(F)(F)F)c2)CC1 (stereo not drawn) [Example 213, 3-({5-[1-(4-tert-Butylcyclohexyl)-3-(4-chloro-3-trifluoromethylphenyl)ureidomethyl]furan-2-carbonyl}amino)propionic acid]
> 50 | O=C(O)CCNC(=O)c1ccc(CN(C(=O)Nc2cccc(SC(F)(F)F)c2)c2ccc(C3CCCCC3)cc2)cc1 [Example 202, 3-{4-[1-(4-Cyclohexylphenyl)-3-(3-trifluoromethylsulfanylphenyl)ureidomethyl]benzoylamino}propionic acid]
> 50 | O=C(O)CCNC(=O)c1ccc(CN(CCc2cccc(Cl)c2)C(=O)Nc2cccc(SC(F)(F)F)c2)cc1 [Example 201, 3-{4-[1-[2-(3-Chlorophenyl)ethyl]-3-(3-trifluoromethylsulfanylphenyl)ureidomethyl]benzoylamino}propionic acid]

More lines, now with the values behind:

SMILES | inhibition at 1 µM [%]
CCCCc1ccc(NC(=O)N(Cc2ccc(C(=O)NCCC(=O)O)cc2)Cc2ccc(C(F)(F)F)cc2)cc1 [Example 118, 3-{4-[1-(4-Trifluoromethylbenzyl)-3-(4-butylphenyl)ureidomethyl]benzoylamino)propionic acid] | > 50
COc1ccc(CN(Cc2cccc(Oc3cccc(C(F)(F)F)c3)c2)Cc2ccc(C(=O)NCCC(=O)O)s2)cc1OC [Example 152, 3-(5-{[(3,4-Dimethoxybenzyl)-(3-[3-trifluoromethylphenoxy]benzyl)amino]methyl}thiophene-2-carbonylamino)propionic acid] | > 50
O=C(O)CCNC(=O)c1ccc(CN(C(=O)Nc2ccc(OC(F)(F)F)cc2)C2C[C@H]2c2ccccc2)cc1 (stereo in doubt) [Example 187, 3-{4-[1-(2-Phenylcyclopropyl)-3-(4-trifluoromethoxyphenyl)ureidomethyl]benzoylamino}propionic acid] | > 50
O=C(O)CCNC(=O)c1ccc(CN(Cc2ccc(C(F)(F)F)cc2)C(=O)Nc2ccc(SC(F)(F)F)cc2)s1 [Example 131, 3-{5-[1-(4-Trifluoromethylbenzyl)-3-(4-trifluoromethylsulfanylphenyl)ureidomethyl]thiophene-2-carbonylamino)propionic acid] | > 50
Cc1ccc(CN(CCc2ccc(Cl)cc2Cl)Cc2ccc(C(=O)NCCC(=O)O)s2)cc1 [Example 147, 3-(5-{[(2,4-Dichlorophenylethyl)-(4-methylbenzyl)amino]methyl}thiophene-2-carbonylamino)propionic acid] | > 50
O=C(O)CCNC(=O)c1ccc(CN(C(=O)Nc2ccc(Cl)c(C(F)(F)F)c2)c2ccc3c(c2)OC(F)(F)C(F)(F)O3)cc1 [Example 191, 3-{4-[3-(4-Chloro-3-trifluoromethyl-phenyl)-1-(2,2,3,3-tetrafluoro-2,3-dihydrobenzo[1,4]-dioxin-6-yl)ureidomethyl]benzoylamino}propionic acid] | > 50
CC(C)(C)C1CCC(N(Cc2ccc(C(=O)Nc3ncnc4[nH]ncc34)cc2)C(=O)Nc2ccc(OC(F)(F)F)cc2)CC1 (stereo not drawn) [Example 165, 4-[1-(4-tert-Butylcyclohexyl)-3-(4-trifluoromethoxyphenyl)ureidomethyl]-N-(1H-pyrazolo[3,4-d]pyrimidin-4-yl)benzamide] | > 50
O=C(O)CCNC(=O)c1ccc(CN(CCc2cccc(Cl)c2)C(=O)Nc2ccc(OC(F)(F)F)cc2)cc1 [Example 180, 3-{4-[1-[2-(3-Chlorophenyl)ethyl]-3-(4-trifluoromethoxyphenyl)ureidomethyl]benzoylamino}propionic acid] | > 50
O=C(O)CCNC(=O)c1ccc(CN(Cc2ccc(Cl)cc2)Cc2ccc(Cl)cc2)s1 [Example 148, 3-(5-{[Bis-(4-chlorobenzyl)amino]methyl}thiophene-2-carbonylamino)propionic acid] | > 50
CC(C)(C)C1CCC(N(Cc2ccc(C(=O)NCCC(=O)O)cc2)C(=O)Nc2cccc(SC(F)(F)F)c2)CC1 (stereo not drawn) [Example 199, 3-{4-[1-(4-tert-Butylcyclohexyl)-3-(3-trifluoromethylsulfanylphenyl)ureidomethyl]benzoylamino}propionic acid] | > 50
O=C(O)CCNC(=O)c1ccc(CN(Cc2ccccc2Cl)CC(c2ccccc2)c2ccccc2)cc1 [Example 143, 3-(4-{[(2,2-Diphenylethyl)-(2-chlorobenzyl)amino]methyl}benzoylamino)propionic acid] | > 50
CC(C)(C)C1CCC(N(Cc2ccc(C(=O)Nc3ccc4c(c3)C(=O)NC4=O)cc2)C(=O)Nc2cc(Cl)cc(Cl)c2)CC1 (stereo not drawn) [Example 171, 4-[1-(4-tert-Butylcyclohexyl)-3-(3,5-dichlorophenyl)ureidomethyl]-N-(1,3-dioxo-2,3-dihydro-1H-isoindol-5-yl)benzamide] | > 50
